According to patent publication US9862711B2, “Pyrazine derivatives as phosphatidylinositol 3-kinase inhibitors” (NOVARTIS AG, priority 2014, dated 2018):

Tests used:
PI 3-kinase delta = PI 3-kinase delta (Homo sapiens (Human), UniProt O00329); test: TR-FRET Adapta assay (Assay F); format: biochemical; conditions: read-out: Assay F PI3Kδ IC50
Source text: (§1) TR-FRET Adapta Assay for PI 3-Kinase Gamma (E), PI 3-Kinase Delta (F)
(§2) The TR-FRET Adapta™ Universal Kinase Assay Kit was purchased from Invitrogen Corporation (Carlsbad/CA, USA) (Cat. No. PV5099). The kit contains the following reagents: Adapta Eu-anti-ADP Antibody (Europium labeled anti-ADP antibody in HEPES buffered saline, Cat. No. PV5097), Alexa Fluor® 647-labeled ADP tracer (Alexa Fluor® 647-labeled ADP tracer in HEPES buffered saline, Cat. No. PV5098), TR-FRET dilution buffer pH 7.5 (Cat. No. PV3574). PIK3CD substrate phosphatidylinositol (PI) was obtained from Invitrogen (vesicules consisting of 2 mM phosphatidylinositol (PI) in 50 mM HEPES pH7.5; Cat. No. PV5371). PIK3CG substrate phosphatidylinositol-4,5-bisphosphate (PIP(4,5)2 was obtained from Invitrogen (PIP2:PS large unilamellar vesicules consisting of 1 mM PIP2: 19 mM PS in 50 mM HEPES pH7.5, 3 mM MgCl2, 1 mM EGTA; Cat. No. PV5100).
(§3) Time-Resolved Fluorescence Resonance Energy Transfer (TR-FRET) is a technology based on energy transfer between two adjacent dyes, from an excited electron in one dye (the donor) to an electron of an adjacent dye (the acceptor) through resonance, then released as a photon. This energy transfer is detected by an increase in the fluorescence emission of the acceptor, and a decrease in the fluorescence emission of the donor. TR-FRET assays for protein kinases use a long-lifetime lanthanide Terbium or Europium chelates as the donor species which overcome interference from compound autofluorescence or light scatter from precipitated compounds, by introducing a delay after excitation by a flashlamp excitation source. Results are often expressed as a ratio of the intensities of the acceptor and donor fluorophores. The ratiometric nature of such a value corrects for differences in assay volumes between wells, as well as corrects for quenching effects due to colored compounds. The Adapta™ assay can be divided into two phases: a kinase reaction phase and an ADP detection phase. In the kinase reaction phase, all kinase reaction components are added to the well and the reaction is allowed to incubate for a set period of time specific for each kinase. After the reaction, a detection solution of Eu-labeled anti-ADP antibody, Alexa Fluor® 647-labeled ADP tracer, and EDTA (to stop the kinase reaction) are added to the assay well. ADP formed by the kinase reaction will displace the Alexa Fluor® 647-labeled ADP tracer from the antibody, resulting in a decrease in TR-FRET signal. In the presence of an inhibitor, the amount of ADP formed by the kinase reaction is reduced, and the resulting intact antibodytracer interaction maintains a high TR-FRET signal. In the Adapta™ assay, the donor (Europium-anti-ADP antibody) is excited at 340 nm and will transfer its energy to the acceptor (Alexa Fluor® 647-labeled ADP tracer). The emission from the Alexa Fluor® 647 can be monitored with a filter centered at 665 nm because it is located between the emission peaks of the donor, which is measured at 615/620 nm. 50 nL of compound dilutions were dispensed onto white 384-well small volume polystyrene plate. Then 5 μL of either PI 3-kinase gamma or PI 3-kinase delta and lipid substrate (P1 or PIP2:PS) followed by 5 μL of ATP (final assay volume 10 μL) are incubated at RT. The standard reaction buffer for the Adapta™ TR-FRET assay contained 10 mM Tris-HCl pH 7.5, 3 mM MgCl2, 50 mM NaCl, 1 mM DTT, 0.05% CHAPS ((3-[(3-cholamidopropyl)dimethylammonio]-1-propanesulfonate). Reactions were stopped with 5 μL of a mixture of EDTA containing the Eu-labeled anti-ADP antibody and the Alexa Fluor® 647-labeled ADP tracer in TR-FRET dilution buffer. Plates are read 15 to 60 mins later in a Synergy2 reader using an integration time of 0.4 seconds and a delay of 0.05 seconds. Control for the 100% inhibition of the kinase reaction was performed by replacing the PI 3-kinase by the standard reaction buffer. […]

PI 3-kinase gamma = PI 3-kinase gamma (Homo sapiens (Human), UniProt P48736); test: TR-FRET Adapta assay (Assay E); format: biochemical; conditions: read-out: Assay E PI3Kγ IC50
PI 3-kinase gamma, sequence (P48736 whole entry): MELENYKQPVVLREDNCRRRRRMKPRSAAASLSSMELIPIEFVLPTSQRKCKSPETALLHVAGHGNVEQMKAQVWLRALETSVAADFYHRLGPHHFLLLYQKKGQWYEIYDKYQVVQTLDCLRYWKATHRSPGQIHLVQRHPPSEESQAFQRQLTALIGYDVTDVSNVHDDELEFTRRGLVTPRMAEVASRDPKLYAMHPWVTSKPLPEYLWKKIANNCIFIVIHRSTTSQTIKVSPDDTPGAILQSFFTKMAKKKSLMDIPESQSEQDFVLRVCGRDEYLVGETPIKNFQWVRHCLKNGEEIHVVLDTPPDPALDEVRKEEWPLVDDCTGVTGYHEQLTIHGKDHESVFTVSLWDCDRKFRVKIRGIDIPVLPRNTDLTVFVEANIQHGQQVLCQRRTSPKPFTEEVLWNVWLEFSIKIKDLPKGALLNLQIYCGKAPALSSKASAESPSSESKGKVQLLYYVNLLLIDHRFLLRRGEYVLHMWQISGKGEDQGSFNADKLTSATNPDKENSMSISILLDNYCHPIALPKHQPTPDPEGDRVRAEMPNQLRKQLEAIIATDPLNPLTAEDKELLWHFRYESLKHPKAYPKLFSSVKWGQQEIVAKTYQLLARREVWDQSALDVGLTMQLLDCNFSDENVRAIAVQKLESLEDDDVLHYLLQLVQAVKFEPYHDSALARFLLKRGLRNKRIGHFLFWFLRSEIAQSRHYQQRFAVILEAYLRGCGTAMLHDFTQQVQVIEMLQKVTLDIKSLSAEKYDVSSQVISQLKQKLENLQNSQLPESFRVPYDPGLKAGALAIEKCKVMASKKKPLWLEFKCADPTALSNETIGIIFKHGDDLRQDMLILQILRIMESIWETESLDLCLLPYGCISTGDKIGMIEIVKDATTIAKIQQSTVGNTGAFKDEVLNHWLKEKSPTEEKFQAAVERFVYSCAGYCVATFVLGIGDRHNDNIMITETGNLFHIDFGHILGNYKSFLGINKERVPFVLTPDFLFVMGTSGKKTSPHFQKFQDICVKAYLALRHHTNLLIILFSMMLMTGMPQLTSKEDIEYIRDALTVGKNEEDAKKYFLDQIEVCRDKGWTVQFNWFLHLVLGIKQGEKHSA
Source text: as §1, §2, §3

PI 3-kinase delta, sequence (O00329 2-1044): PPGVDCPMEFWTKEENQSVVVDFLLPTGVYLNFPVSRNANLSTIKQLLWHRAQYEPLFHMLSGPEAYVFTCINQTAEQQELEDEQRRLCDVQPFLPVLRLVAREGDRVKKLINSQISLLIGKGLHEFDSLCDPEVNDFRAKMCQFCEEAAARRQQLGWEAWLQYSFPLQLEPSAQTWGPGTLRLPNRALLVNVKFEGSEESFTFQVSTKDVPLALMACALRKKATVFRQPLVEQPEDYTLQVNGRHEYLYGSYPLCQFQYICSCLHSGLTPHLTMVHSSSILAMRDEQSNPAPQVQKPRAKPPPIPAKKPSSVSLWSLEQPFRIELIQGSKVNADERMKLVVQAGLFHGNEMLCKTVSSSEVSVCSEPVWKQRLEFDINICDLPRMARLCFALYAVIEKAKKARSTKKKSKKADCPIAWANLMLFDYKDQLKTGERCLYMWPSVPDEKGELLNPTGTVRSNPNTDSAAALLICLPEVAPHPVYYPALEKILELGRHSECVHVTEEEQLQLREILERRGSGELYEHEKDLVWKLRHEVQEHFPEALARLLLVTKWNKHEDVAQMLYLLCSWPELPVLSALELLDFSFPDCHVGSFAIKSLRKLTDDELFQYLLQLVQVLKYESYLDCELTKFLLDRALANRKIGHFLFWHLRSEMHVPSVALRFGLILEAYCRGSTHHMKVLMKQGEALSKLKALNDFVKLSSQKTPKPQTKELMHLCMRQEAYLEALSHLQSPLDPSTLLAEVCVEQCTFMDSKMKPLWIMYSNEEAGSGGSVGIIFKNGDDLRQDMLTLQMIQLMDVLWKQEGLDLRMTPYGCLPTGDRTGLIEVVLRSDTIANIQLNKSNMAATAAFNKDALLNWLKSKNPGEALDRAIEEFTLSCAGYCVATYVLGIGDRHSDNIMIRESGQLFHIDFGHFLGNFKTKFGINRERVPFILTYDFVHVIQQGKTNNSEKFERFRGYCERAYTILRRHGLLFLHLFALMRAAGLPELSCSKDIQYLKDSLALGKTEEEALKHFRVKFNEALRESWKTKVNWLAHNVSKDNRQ

| SMILES | IC50 (PI 3-kinase delta) [µM] | IC50 (PI 3-kinase gamma) [µM] |
| --- | --- | --- |
| Cc1ccc(S(=O)(=O)NCCC(C)(C)O)cc1-c1cncc(-c2cn(C)nc2C)n1 [Example 3, 3-[6-(1,3-Dimethyl-1H-pyrazol-4-yl)-pyrazin-2-yl]-N-(3-hydroxy-3-methyl-butyl)-4-methyl-benzenesulfonamide] | 0.07 | 0.048 |
| Cc1ncc(-c2cncc(-c3cc(S(=O)(=O)N[C@H]4CC[C@H](O)CC4)ccc3C)n2)s1 [Example 5, Trans N-(4-Hydroxycyclohexyl)-4-methyl-3-(6-(2-methylthiazol-5-yl)pyrazin-2-yl)benzenesulfonamide] | 0.09 | 0.015 |
| Cc1ccc(S(=O)(=O)NCC2(C)COC2)cc1-c1cncc(-c2cn(C)nc2C)n1 [Example 4, Trans 3-[6-(1,3-Dimethyl-1H-pyrazol-4-yl)-pyrazin-2-yl]-4-methyl-N-(3-methyl-oxetan-3-ylmethyl)-benzenesulfonamide] | 0.07 | 0.014 |
| Cc1ccc(S(=O)(=O)NCC(C)(C)O)cc1-c1cncc(-c2cn(C)nc2C)n1 [Example 2, 3-[6-(1,3-Dimethyl-1H-pyrazol-4-yl)-pyrazin-2-yl]-N-(2-hydroxy-2-methyl-propyl)-4-methyl-benzenesulfonamide] | 0.06 | 0.019 |
| Cc1ncc(-c2cncc(-c3cc(S(=O)(=O)NCCCO)ccc3C)n2)s1 [Example 1, N-(3-Hydroxy-propyl)-4-methyl-3-[6-(2-methyl-thiazol-5-yl)-pyrazin-2-yl]-benzenesulfonamide] | 0.2 | 0.022 |
| Cc1ccc(S(=O)(=O)NCC(C)(C)CO)cc1-c1cncc(-c2cn(C)nc2C)n1 [Example 8, 3-[6-(1,3-Dimethyl-1H-pyrazol-4-yl)-pyrazin-2-yl]-N-(3-hydroxy-2,2-dimethyl-propyl)-4-methyl-benzenesulfonamide] | 0.07 | 0.02 |

Continued, values first:

| IC50 (PI 3-kinase delta) [µM] | IC50 (PI 3-kinase gamma) [µM] | SMILES |
| --- | --- | --- |
| 0.12 | 0.088 | Cc1ccc(S(=O)(=O)N[C@H]2CC[C@H](O)CC2)cc1-c1cncc(-c2cccnc2)n1 [Example 11, Trans N-(4-Hydroxy-cyclohexyl)-4-methyl-3-(6-pyridin-3-yl-pyrazin-2-yl)-benzenesulfonamide] |
| 0.02 | 0.027 | Cc1ccc(S(=O)(=O)NCCC(C)(C)O)cc1-c1cncc(-c2cn(CCN3CCOCC3)nc2C)n1 [Example 10, N-(3-Hydroxy-3-methyl-butyl)-4-methyl-3-{6-[3-methyl-1-(2-morpholin-4-yl-ethyl)-1H-pyrazol-4-yl]-pyrazin-2-yl}-benzenesulfonamide] |
| 0.01 | 0.16 | Cc1ccc(S(=O)(=O)NCCC(C)(C)O)cc1-c1cncc(-c2cnn(CCN3CCOCC3)c2)n1 [Example 9, N-(3-Hydroxy-3-methyl-butyl)-4-methyl-3-{6-[1-(2-morpholin-4-yl-ethyl)-1H-pyrazol-4-yl]-pyrazin-2-yl}-benzenesulfonamide] |
